Measured values reported in patent US8039499B2, “Ester compound and its use” (Sumitomo Chemical Company, Limited, priority 2006, dated 2011).

Legend:
[1] = system: German cockroach (Blattella germanica); experiment: Test Example 3: German cockroach knock down, spray in test chamber; type: in vivo; settings: active ingredient concentration 0.00625%, 1.5 ml sprayed, counted 1 minutes after spraying, repeated twice
Method: The formulation of the sample compound obtained in Formulation Example 7 was diluted with dichloromethane/deodorized kerosene=1/9 mixed solution so that the active ingredient concentration was 0.00625%, to prepare a test medicinal solution.
A container (8.75 cm in diameter, 7.5 cm in height, bottom covered 16-mesh iron net and inside wall painted butter for preventing tested pill bugs to escape) having 10 German cockroach (5 males and 5 females, Blattella germanica) therein was set on the bottom of a test chamber (46 cm×46 cm, height: 70 cm). From a height of 60 cm above the upper surface of the container, 1.5 ml of the test solution was sprayed using a spray gun at a spraying pressure of 0.4 kg/cm^2. After 30 seconds, the German cockroach were taken out and put into a clean plastic cup having 8.2 cm in diameter. The lid having holes was covered on the cup. 1 minutes after spraying, the number of knocked-down insects was counted (repeated twice).

[2] = system: adult houseflies; experiment: Test Example 2: housefly knock down, spray in cubic glass chamber; type: in vivo; settings: active ingredient concentration 0.00625%, 0.7 ml sprayed, counted 10 minutes after spraying, repeated twice
Method: The formulation of the sample compound obtained in Formulation Example 7 was diluted with dichloromethane/deodorized kerosene=1/9 mixed solution so that the active ingredient concentration was 0.00625%, to prepare a test solution.
Ten adult houseflies (4 or 5 males and 4 or 5 females each) were left in a cubic glass chamber (70 cm at each side), and 0.7 ml of the test solution was sprayed through a small window at the side of the chamber using a spray gun at a spraying pressure of 0.9 kg/cm^2. 10 minutes after spraying, the number of knocked-down insects was counted (repeated twice).

For C#CCN1CC(=O)N(COC(=O)[C@@H]2[C@@H](/C=C(\C)C=NOC)C2(C)C)C1=O [present compound (1), 2,5-dioxo-3-(2-propynyl)imidazolidin-1-ylmethyl (1R)-trans-3-[(E)-3-methoxyimino-2-methyl-1-propenyl]-2,2-dimethylcyclopropanecarboxylate], the “knock down ratio of sample insects” value [1] was 100% and the “knock down ratio of sample insects” value [2] was 100%.

In the case of C#CCc1ccc(COC(=O)[C@@H]2[C@@H](/C=C(\C)C=NOC)C2(C)C)o1 [comparative compound (B), 5-(2-propynyl)furan-2-ylmethyl (1R)-trans-3-[(E)-3-methoxyimino-2-methyl-1-propenyl]-2,2-dimethylcyclopropanecarboxylate], the “knock down ratio of sample insects” value [1] is reported as 0%.

For C#CCN1CC(=O)N(COC(=O)[C@@H]2[C@@H](C=C(C)C)C2(C)C)C1=O [comparative compound (A), 2,5-dioxo-3-(2-propynyl)imidazolidine-1-ylmethyl (1R)-trans-2,2-dimethyl-3-(2-methyl-1-propenyl)cyclopropane carboxylate], the “knock down ratio of sample insects” value [2] was 42%.
